{"source": "paper PMC8492687", "about": "“An ethylene biosynthesis enzyme controls quantitative variation in maize ear length and kernel yield” (Nature Communications, 2021)", "target": "T1, ZmACO2 (Zea mays, UniProt A0A804UDP7)", "T1 construct": "gene LOC100382364", "T1 sequence (A0A804UDP7 1-326)": "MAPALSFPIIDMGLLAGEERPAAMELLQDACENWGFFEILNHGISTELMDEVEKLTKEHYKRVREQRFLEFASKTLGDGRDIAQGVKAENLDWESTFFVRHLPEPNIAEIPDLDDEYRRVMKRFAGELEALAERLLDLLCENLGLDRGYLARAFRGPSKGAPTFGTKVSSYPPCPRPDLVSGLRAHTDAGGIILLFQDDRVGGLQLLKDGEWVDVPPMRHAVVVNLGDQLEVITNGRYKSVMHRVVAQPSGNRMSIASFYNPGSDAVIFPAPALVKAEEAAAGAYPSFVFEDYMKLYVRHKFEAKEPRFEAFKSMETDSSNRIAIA", "test": "ethylene production by gas chromatography with flame-ionization detection", "format": "biochemical", "conditions": "5 mM ascorbate, 20 mM bicarbonate, 0.02 mM iron sulfate, 1 mM DTT, 10% glycerol, MOPS pH 7.2, 30 °C; ACC varied, Michaelis-Menten fit drawn"}
{"smiles": "NC1(C(=O)O)CC1", "note": "[ACC]", "values": [{"measurement": "ethylene production by gas chromatography with flame-ionization detection", "value": "The amount of ethylene production catalyzed by ZmACO2 increased exponentially up to an ACC concentration"}]}
